Experimental data taken from patent US20240101576A1, “HETEROCYCLIC INHIBITORS OF EGFR AND/OR HER2, FOR USE IN THE TREATMENT OF CANCER” (Scorpion Therapeutics, Inc., priority 2020, published 2024).

Assays:
Assay type in all cases: cell-based
EGFR WT (Ba/F3 cells) = biological target: T1, EGFR WT (Ba/F3 cells) (Homo sapiens, UniProt P00533); test: Inhibitor activity on EGFR-dependent cell growth (CellTiter-Glo, 72 h), Ba/F3 EGFR WT; conditions: read-out: BaF3 WT IC50
T1 construct: expressed in transfected cells; host or cells: Ba/F3 (murine pro-B cells), retroviral transduction, puromycin selection, maintained with EGF
Procedure, shortened: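 This growth assay used Ba/F3 cells that depend on wild-type EGFR and are kept in EGF without IL3. Compounds were made up as 10 mM DMSO stocks and diluted 3-fold over 10 points. 120 nL went onto 600 cells/well. After 72 hours, 40 μL CellTiter-Glo was added and luminescence read on EnVision after 30 min.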

[1] = biological target: T2, EGFR exon 20 ASV Ins V769_D770 (Ba/F3 cells) (Homo sapiens, UniProt P00533, INS769ASV); test: Inhibitor activity on EGFR-dependent cell growth (CellTiter-Glo, 72 h), Ba/F3 EGFR exon 20 ASV Ins; conditions: read-out: BaF3 ASV IC50
T2 construct: expressed in transfected cells; host or cells: Ba/F3 (murine pro-B cells), retroviral transduction, puromycin selection, IL3-independent pool
Procedure, shortened: (§1)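 IC50s derive from a sigmoidal dose–response fit of CellTiter-Glo signal. The signal was normalised between […]-treated cells and cell-free medium. Ba/F3 mutant-EGFR cells, seeded at 400–800/well depending on the line, had 72 h of exposure to a 10-point, 3-fold compound series.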

[2] = biological target: T3, EGFR exon 20 SVD Ins D770_N771 (Ba/F3 cells) (Homo sapiens, UniProt P00533, INS770SVD); test: Inhibitor activity on EGFR-dependent cell growth (CellTiter-Glo, 72 h), Ba/F3 EGFR exon 20 SVD Ins; conditions: read-out: BaF3 SVD IC50
T3 construct: expressed in transfected cells; host or cells: Ba/F3 (murine pro-B cells), retroviral transduction, puromycin selection, IL3-independent pool
Procedure, shortened: as §1

[3] = biological target: T4, EGFR exon 20 FQEA Ins A763_V764 (Ba/F3 cells) (Homo sapiens, UniProt P00533, INS763FQEA); test: Inhibitor activity on EGFR-dependent cell growth (CellTiter-Glo, 72 h), Ba/F3 EGFR exon 20 FQEA Ins; conditions: read-out: BaF3 FQEA IC50
T4 construct: expressed in transfected cells; host or cells: Ba/F3 (murine pro-B cells), retroviral transduction, puromycin selection, IL3-independent pool
Procedure, shortened: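 Cell viability was measured by CellTiter-Glo after a three-day treatment. The IL3-free Ba/F3 lines carried L858R, L858R/C797S, exon 19 deletion or FQEA insertion EGFR and were seeded at 400, 600, 800 and 800 cells/well respectively.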

[4] = biological target: T2, EGFR exon 20 ASV Ins V769_D770 (Ba/F3 cells); test: Inhibitor activity on EGFR phosphorylation (pEGFR AlphaLISA, 2 h), Ba/F3 EGFR exon 20 ASV Ins; conditions: EGFR phosphorylation, AlphaLISA, 2 hours; read-out: ASV IC50 (pEGFR)
Excerpt: Example B. Inhibitor Activity on EGFR phosphorylation (pEGFR)
EGFR mutant Ba/F3 cells were generated by transduction with retrovirus containing vectors expressing EGFR L858R, EGFR exon 19del, EGFR L858R/C797S, EGFR exon 20 NPG Ins D770_N771, EGFR exon 20 ASV Ins V769_D770, or EGFR exon 20 SVD Ins D770_N771 genes along with a puromycin selection marker. Transduced cells are selected with puromycin for 7 days and are then be transferred into culture media without Interleukin 3 (IL3). Surviving cells are confirmed to express EGFR by Western blot and maintained as a pool. CUTO14 cells were obtained from Dr. Robert C. Doebele at the University of Colorado. The IC50 date are included in Table 6 and Table 7.
1.1 Cells are harvested from flask into cell culture medium and the cell number counted.
1.2 Cells are diluted with culture medium to the desired density and 40 μL of cell suspension is added into each well of 384-well cell culture plate and the seeding density is 50K cells/well (Ba/F3) or 12.5K cells/well (CUTO14).
2 Compound Preparation and Treatment
2.1 Test compounds are dissolved to 10 mM in a DMSO stock solution. 45 μL of stock solution is transferred to a 384 polypropylene plate (pp-plate). Perform 3-fold, 10-point dilution via transferring 15 μL compound into 30 μL DMSO using a TECAN (EVO200) liquid handler.
2.2 Spin plates at room temperature at 1,000 RPM for 1 minute.
2.3 Transfer 5 nL of diluted compound from compound source plate into the cell plate.
2.4 After compound treatment for 2 hours, perform pEGFR detection by AlphaLISA for compound treatment plates as described in “Detection” section.
3 Detection by pEGFR AlphaLISA (Perkin-Elmer)
3.1 Plates are removed from incubators and equilibrated at room temperature for 10 minutes, and media was removed
3.2 10 μL of lysis buffer is added and plates shaken at 600 rpm for 1 hr.
3.3 Prepare acceptor mix just before use and dispense 5 μL of acceptor mix to all the wells. Shake 350 rpm for Ihr in the dark
3.4 Prepare donor mix under low light conditions prior to use. Dispense 5 μL of donor mix to all the wells. Mix well on the shaker, seal and wrap in aluminum foil and incubate 1.5 hrs at room temperature in the dark
3.5 Transfer 18.5 μL mixture to OptiPlate 384, and read using an Envision. The IC50 date were included in Table 6 and Table 7.

T4 sequence (P00533 with tags, fused parts or gaps INS763FQEA): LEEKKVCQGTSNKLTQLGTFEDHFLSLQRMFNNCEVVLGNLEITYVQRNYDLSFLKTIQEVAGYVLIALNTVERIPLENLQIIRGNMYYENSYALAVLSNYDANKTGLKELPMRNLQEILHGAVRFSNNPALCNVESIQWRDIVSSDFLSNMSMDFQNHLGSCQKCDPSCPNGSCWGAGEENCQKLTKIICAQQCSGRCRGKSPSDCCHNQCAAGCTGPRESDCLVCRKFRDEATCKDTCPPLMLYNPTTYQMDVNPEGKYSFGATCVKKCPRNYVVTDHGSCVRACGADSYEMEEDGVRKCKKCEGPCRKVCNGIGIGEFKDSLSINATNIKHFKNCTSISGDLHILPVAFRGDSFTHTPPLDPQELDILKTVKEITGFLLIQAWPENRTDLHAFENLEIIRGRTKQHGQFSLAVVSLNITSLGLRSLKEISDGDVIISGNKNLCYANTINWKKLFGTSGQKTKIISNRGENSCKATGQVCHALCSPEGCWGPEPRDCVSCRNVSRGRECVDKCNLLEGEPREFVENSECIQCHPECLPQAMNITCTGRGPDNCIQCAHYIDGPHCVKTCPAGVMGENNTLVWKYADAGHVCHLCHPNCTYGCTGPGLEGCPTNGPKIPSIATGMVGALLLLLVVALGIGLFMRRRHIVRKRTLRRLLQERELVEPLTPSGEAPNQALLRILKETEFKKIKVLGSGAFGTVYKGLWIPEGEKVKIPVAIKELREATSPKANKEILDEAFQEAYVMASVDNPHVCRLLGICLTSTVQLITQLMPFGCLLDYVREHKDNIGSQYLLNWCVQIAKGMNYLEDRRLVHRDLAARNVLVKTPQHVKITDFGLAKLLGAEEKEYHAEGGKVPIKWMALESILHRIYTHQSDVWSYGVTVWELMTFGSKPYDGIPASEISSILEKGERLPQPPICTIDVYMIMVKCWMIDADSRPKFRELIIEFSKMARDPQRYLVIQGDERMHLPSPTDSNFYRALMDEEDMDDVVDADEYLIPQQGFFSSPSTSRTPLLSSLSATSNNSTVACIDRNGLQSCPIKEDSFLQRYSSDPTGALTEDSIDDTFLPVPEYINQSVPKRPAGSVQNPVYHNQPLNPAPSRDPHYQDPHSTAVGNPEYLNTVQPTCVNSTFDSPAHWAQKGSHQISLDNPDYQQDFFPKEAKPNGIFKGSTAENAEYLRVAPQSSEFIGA
T3 sequence (P00533 with tags, fused parts or gaps INS770SVD): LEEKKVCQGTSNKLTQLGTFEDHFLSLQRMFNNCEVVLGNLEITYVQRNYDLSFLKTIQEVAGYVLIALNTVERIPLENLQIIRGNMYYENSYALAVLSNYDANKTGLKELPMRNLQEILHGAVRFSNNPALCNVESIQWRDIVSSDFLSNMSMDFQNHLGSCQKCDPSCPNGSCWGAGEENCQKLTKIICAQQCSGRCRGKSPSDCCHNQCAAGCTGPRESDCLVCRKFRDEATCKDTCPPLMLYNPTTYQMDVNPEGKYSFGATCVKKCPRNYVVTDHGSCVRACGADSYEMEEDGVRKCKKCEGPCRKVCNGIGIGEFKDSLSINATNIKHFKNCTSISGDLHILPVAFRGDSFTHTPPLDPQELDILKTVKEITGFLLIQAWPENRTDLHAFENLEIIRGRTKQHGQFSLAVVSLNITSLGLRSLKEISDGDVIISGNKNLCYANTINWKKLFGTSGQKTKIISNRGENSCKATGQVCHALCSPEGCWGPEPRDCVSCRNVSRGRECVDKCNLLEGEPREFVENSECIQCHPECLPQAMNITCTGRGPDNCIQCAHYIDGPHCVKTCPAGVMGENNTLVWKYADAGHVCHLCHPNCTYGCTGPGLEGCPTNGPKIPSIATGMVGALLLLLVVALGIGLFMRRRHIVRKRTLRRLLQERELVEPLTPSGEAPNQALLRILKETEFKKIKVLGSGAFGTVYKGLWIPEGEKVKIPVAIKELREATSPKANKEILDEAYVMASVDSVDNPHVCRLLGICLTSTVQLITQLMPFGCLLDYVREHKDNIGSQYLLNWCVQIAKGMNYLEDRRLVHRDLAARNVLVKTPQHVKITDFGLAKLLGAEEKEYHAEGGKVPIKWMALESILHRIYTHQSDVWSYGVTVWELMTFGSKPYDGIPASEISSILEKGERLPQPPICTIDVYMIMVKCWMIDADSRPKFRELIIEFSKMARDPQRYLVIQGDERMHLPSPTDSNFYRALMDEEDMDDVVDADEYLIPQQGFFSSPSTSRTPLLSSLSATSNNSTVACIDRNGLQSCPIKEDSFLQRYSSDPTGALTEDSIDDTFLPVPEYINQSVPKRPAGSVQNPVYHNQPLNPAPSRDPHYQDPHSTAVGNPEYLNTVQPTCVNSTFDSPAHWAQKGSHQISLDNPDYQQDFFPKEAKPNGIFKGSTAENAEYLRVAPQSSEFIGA
T1 sequence (P00533 25-1210): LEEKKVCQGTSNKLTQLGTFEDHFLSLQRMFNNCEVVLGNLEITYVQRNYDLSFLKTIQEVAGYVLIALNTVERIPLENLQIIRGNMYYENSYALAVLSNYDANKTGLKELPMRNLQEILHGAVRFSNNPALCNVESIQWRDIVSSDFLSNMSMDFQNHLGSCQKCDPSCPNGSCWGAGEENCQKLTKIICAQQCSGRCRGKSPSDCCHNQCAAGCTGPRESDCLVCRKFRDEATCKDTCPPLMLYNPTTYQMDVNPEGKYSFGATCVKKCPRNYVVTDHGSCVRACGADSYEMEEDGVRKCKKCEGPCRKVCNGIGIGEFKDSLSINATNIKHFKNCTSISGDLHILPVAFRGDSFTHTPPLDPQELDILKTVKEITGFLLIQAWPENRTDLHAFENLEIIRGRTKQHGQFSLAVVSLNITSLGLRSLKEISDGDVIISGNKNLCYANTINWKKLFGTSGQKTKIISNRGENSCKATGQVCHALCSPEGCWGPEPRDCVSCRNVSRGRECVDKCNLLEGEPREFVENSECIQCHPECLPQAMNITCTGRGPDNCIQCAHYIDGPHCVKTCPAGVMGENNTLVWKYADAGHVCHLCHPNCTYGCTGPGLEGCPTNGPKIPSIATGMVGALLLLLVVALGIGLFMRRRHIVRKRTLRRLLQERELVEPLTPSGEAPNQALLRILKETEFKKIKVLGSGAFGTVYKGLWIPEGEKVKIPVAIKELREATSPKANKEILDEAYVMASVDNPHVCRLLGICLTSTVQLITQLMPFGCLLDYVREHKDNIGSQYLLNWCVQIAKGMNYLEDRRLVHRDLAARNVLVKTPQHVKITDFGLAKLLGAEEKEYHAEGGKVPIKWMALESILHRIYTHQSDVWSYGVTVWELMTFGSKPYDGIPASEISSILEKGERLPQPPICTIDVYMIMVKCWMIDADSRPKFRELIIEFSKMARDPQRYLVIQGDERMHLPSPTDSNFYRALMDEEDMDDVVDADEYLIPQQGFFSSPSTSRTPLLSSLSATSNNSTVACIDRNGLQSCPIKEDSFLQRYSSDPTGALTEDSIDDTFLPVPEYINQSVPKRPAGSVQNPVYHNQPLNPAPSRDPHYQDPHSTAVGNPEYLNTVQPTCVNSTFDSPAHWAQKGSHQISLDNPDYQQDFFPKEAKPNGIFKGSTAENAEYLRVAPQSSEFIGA
T2 sequence (P00533 with tags, fused parts or gaps INS769ASV): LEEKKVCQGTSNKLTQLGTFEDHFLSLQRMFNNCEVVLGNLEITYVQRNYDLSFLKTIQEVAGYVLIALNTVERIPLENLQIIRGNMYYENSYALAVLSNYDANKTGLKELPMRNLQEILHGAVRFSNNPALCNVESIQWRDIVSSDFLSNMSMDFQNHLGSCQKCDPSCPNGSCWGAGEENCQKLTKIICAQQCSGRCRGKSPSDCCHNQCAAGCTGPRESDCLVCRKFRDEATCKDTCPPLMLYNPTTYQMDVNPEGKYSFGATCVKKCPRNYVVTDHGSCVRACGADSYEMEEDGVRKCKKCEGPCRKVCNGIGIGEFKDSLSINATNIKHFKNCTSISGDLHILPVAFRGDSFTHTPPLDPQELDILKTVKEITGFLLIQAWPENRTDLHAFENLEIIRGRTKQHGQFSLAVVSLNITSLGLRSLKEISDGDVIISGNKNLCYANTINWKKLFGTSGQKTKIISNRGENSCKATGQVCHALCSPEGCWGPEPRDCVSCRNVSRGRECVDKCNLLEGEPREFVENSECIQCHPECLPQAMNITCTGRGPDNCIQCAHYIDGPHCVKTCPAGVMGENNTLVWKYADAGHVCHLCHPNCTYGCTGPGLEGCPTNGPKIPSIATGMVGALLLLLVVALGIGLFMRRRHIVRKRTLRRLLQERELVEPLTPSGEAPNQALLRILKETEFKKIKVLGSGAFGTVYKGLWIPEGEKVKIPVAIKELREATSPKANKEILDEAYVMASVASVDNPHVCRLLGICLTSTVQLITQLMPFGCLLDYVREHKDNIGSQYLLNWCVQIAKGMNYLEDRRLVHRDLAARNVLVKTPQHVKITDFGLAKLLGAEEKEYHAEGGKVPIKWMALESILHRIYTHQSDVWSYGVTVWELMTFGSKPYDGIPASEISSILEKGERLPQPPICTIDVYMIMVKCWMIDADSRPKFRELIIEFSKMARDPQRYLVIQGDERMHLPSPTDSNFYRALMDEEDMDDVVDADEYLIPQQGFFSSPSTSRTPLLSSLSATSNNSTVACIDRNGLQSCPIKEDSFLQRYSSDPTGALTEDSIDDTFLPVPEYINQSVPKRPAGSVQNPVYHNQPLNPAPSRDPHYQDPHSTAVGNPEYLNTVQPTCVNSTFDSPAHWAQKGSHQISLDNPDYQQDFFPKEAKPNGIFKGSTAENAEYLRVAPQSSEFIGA

COc1cc(Cl)cc(Nc2c(-c3ccnc(N)n3)[nH]c3c2C(=O)NCC3)c1 [compound 302]
IC50 (EGFR WT (Ba/F3 cells)): > 1000 nM | IC50 [1]: > 1000 nM | IC50 [2]: > 1000 nM | IC50 [3]: > 1000 nM | IC50 [4]: > 1000 nM

COc1c(Cl)cccc1Nc1c(-c2nc(N)ncc2C#N)[nH]c2c1C(=O)NCC2 [Compound 693, 2-amino-4-[3-[(3-chloro-2-methoxyphenyl)amino]-4-oxo-1H,5H,6H,7H-pyrrolo[3,2-c]pyridin-2-yl]pyrimidine-5-carbonitrile]
IC50 (EGFR WT (Ba/F3 cells)): > 1000 nM | IC50 [1]: > 1000 nM | IC50 [2]: > 1000 nM | IC50 [3]: > 1000 nM | IC50 [4]: > 1000 nM

COc1c(Cl)cccc1Nc1c(-c2ccnc(NC3CC(F)(F)C3)n2)[nH]c2c1C(=O)NCC2 [Compound 712, 3-[(3-chloro-2-methoxyphenyl)amino]-2-[2-[(3,3-difluorocyclobutyl)amino]pyrimidin-4-yl]-1H,5H,6H,7H-pyrrolo[3,2-c] pyridin-4-one]
IC50 (EGFR WT (Ba/F3 cells)): > 1000 nM | IC50 [1]: > 1000 nM | IC50 [2]: > 1000 nM | IC50 [3]: > 1000 nM | IC50 [4]: 100 to 1000 nM

COc1cccc(Nc2c(-c3ccnc(N)n3)[nH]c3c2C(=O)NCC3)c1Cl [compound 301]
IC50 (EGFR WT (Ba/F3 cells)): > 1000 nM | IC50 [1]: > 1000 nM | IC50 [2]: > 1000 nM | IC50 [3]: > 1000 nM | IC50 [4]: > 1000 nM

CNc1cc(-c2[nH]c3c(c2Nc2cccc(Cl)c2OC)C(=O)NCC3)ncn1 [compound 284]
IC50 (EGFR WT (Ba/F3 cells)): > 1000 nM | IC50 [1]: > 1000 nM | IC50 [2]: > 1000 nM | IC50 [3]: > 1000 nM | IC50 [4]: > 1000 nM

COc1c(Cl)cccc1Nc1c(-c2ccnc(NCC(C)(C)O)n2)[nH]c2c1C(=O)NCC2 [compound 288]
IC50 (EGFR WT (Ba/F3 cells)): > 1000 nM | IC50 [1]: > 1000 nM | IC50 [2]: > 1000 nM | IC50 [3]: > 1000 nM | IC50 [4]: > 1000 nM

Cc1cc(F)ccc1Nc1c(-c2ccnc(N)n2)[nH]c2c1C(=O)NCC2 [compound 197]
IC50 (EGFR WT (Ba/F3 cells)): > 1000 nM | IC50 [1]: > 1000 nM | IC50 [2]: > 1000 nM | IC50 [3]: > 1000 nM | IC50 [4]: > 1000 nM

COc1c(F)cc(F)cc1Nc1c(-c2ccnc(N)n2)[nH]c2c1C(=O)NCC2 [compound 304]
IC50 (EGFR WT (Ba/F3 cells)): > 1000 nM | IC50 [1]: 100 to 1000 nM | IC50 [2]: 100 to 1000 nM | IC50 [3]: 100 to 1000 nM | IC50 [4]: < 100 nM

COc1c(Cl)cccc1Nc1c(-c2ccnc(N)n2)[nH]c2c1C(=O)NC[C@H]2C [186b]
IC50 (EGFR WT (Ba/F3 cells)): 100 to 1000 nM | IC50 [1]: < 100 nM | IC50 [2]: < 100 nM | IC50 [3]: 100 to 1000 nM | IC50 [4]: < 100 nM

CSc1c(Cl)cccc1Nc1c(-c2ccnc(N)n2)[nH]c2c1C(=O)NCC2 [Compound 715, 2-(2-aminopyrimidin-4-yl)-3-[[3-chloro-2-(methylsulfanyl)phenyl]amino]-1H,5H,6H,7H-pyrrolo[3,2-c]pyridin-4-one]
IC50 (EGFR WT (Ba/F3 cells)): > 1000 nM | IC50 [1]: 100 to 1000 nM | IC50 [2]: 100 to 1000 nM | IC50 [3]: 100 to 1000 nM | IC50 [4]: < 100 nM

Cc1ccc(F)cc1Nc1c(-c2ccnc(N)n2)[nH]c2c1C(=O)NCC2 [compound 196]
IC50 (EGFR WT (Ba/F3 cells)): > 1000 nM | IC50 [1]: > 1000 nM | IC50 [2]: > 1000 nM | IC50 [3]: 100 to 1000 nM | IC50 [4]: 100 to 1000 nM

COc1c(Cl)cccc1Nc1c(-c2ccnc3[nH]c(=O)oc23)[nH]c2c1C(=O)NCC2 [compound 293]
IC50 (EGFR WT (Ba/F3 cells)): > 1000 nM | IC50 [1]: > 1000 nM | IC50 [2]: > 1000 nM | IC50 [3]: > 1000 nM | IC50 [4]: > 1000 nM

COc1c(Cl)cccc1Nc1c(-c2ccnc(N)n2)[nH]c2c1C(=O)NC[C@@H]2C [186a]
IC50 (EGFR WT (Ba/F3 cells)): 100 to 1000 nM | IC50 [1]: < 100 nM | IC50 [2]: < 100 nM | IC50 [3]: < 100 nM | IC50 [4]: < 100 nM
